Here are results for one substance from patent US7815905B2, “Methods of increasing insulin sensitivity or decreasing insulin secretion by administering corticotropin releasing factor receptor-2 inhibitors” (Research Development Foundation, priority 2006, dated 2010).

Data set [1] has as its system isolated rat islets. The data set is described as follows: Insulin secretion from isolated rat islets. The class given is cell-based. Conditions: exendin-4 10 nM + 8.4 mM glucose; listed as Ast2-B.
The next data set concerns the target T1, CRFR2 (Homo sapiens, UniProt Q13324).
T1 sequence (Q13324 1-411): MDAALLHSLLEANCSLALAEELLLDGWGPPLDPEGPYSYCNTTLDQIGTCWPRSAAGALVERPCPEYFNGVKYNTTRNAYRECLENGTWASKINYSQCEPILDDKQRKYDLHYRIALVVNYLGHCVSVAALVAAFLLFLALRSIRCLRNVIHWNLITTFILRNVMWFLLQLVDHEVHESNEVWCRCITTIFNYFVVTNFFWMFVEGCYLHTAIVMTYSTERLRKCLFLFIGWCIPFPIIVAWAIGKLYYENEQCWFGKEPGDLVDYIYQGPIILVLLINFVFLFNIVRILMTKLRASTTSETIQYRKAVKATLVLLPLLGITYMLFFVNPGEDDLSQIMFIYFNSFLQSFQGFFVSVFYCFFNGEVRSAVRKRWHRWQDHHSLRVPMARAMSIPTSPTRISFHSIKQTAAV
Conditions: Rivier et al. 2002; cited from earlier work.

The test system of the next data set is male rats. The data set is described as follows: Glucose induced insulin release in vivo in male rats. Also on record: species or system rat. As for the experimental part: FIG. 9a-c: The effects of CRFR2 signaling on insulin secretion. […] Plasma insulin (b) and glucose (c) levels in male rats treated with vehicle or Ast2-B (0.09-9 nmol/kg). *, P<0.05 vs. vehicle.
In order to determine whether blocking of CRFR2 function also modulates glucose induced insulin release in vivo, various doses of Ast2-B (0.09-9 nmol/kg) or vehicle were injected intravenously into male rats through a jugular vein cannula 20 min before injection of a glucose (2.8 mmol/kg) bolus.

Data set [2] deals with isolated rat islets. The data set is described as follows: Insulin secretion from isolated rat islets. Conditions: isolated rat islets; for insulin secretion induced by 16.8 mM glucose: pretreated. It is filed as cell-based. As for the experimental part:
FIG. 4a-b: The effect of CRFR2 antagonist on insulin secretion in isolated rat islets. (a) The effect of astressin2B (Ast2-B) on insulin secretion in response to glucose in isolated rat islets. […] The asterisk indicates a statistically significant difference between results from the control versus Ast2-B. (b) Isolated rat isles were pre-treated with anti-Ucn 3 IgG or control IgG followed by addition of indicated concentration of glucose. Y-axis indicates insulin secretion from the treated islets. The double asterisks indicate a statistically significant difference between the indicated treatments. […]
To assess the effect of CRFR2 antagonism on islet cell function secretion of insulin from isolated rat islets was studied. […] Thus, activation of CRFR2 by endogenous ligands is involved in insulin secretion induced by high levels of glucose.
In order to determine the role of Ucn 3 in glucose induced insulin secretion, isolated rat islets were pretreated with an anti-Ucn 3 IgG prior to glucose treatment.

For data set [3] the following is noted: Rivier et al., 2003; cited from earlier work.
The next data set deals with wild type mice. In words: Glucose tolerance test (GTT) in wild type mice. It is filed as in vivo, mouse. Conditions: fasted male wild type mice; 30 μg/kg IP 20 min prior to glucose 2 g/kg. The procedure:
FIG. 1a-f: Metabolic phenotype of Ucn 2 null mice. […] The ability of the Ucn 2 null mice and wild type littermates to handle a glucose load was assessed using a standard glucose tolerance test (see example 1). Fasted male mice were injected intraperitoneally (IP) with glucose (2 g/kg body weight) and blood glucose levels were measured before and at 15, 30, 60, 90 and 120 min following glucose injection. […] Fasted male Ucn 2 null mice were injected IP with saline or with 0.1 μg/kg body weight Ucn 2, 20 min prior to glucose injection (2 g/kg body weight) and blood glucose levels were measured before and at 15, 30, 60 and 90 min following glucose injection. […] Fasted male wild type mice were injected IP with saline or with astressin2B (30 μg/kg body weight), 20 min prior to glucose injection (2 g/kg body weight), and blood glucose levels were measured before and at 15, 30, 60 and 90 min following glucose injection. (d) The enhanced glucose tolerance in the Ucn 2 null mice is not due to increased insulin secretion. Fasted male mice were injected with glucose (3 g/kg body weight, IP) and blood samples were collected at 2, 5, 15 and 30 min following glucose injection and insulin was measured by radioimmunoassay. […] Fasted male mice were injected with insulin (0.75 U/kg body weight, IP) and blood glucose levels were measured before and at 15, 30, 60 and 90 min following insulin injection. […]

“Also recorded” adds a separate entry of the source.

As to “astressin2B: CRFR2 selective antagonist; modified sauvagine polypeptide (SEQ ID NO:10), Rivier et al., 2002”, in the data set with isolated rat islets [1], the “Exendin-4 stimulated insulin release” value is given as “greatly attenuated; also recorded: the effect was attenuated”. Moreover, the “time of administration needed for CRFR2 antagonist activity” value in the data set with CRFR2 is listed as “active when administered concurrently with the CRFR2 agonist”. For the same substance, the “glucose-induced insulin secretion, highest dose compared to 0.9 nmol/kg” value in the data set with male rats (9 nmol/kg intravenously) is listed as “slightly less effective”. Moreover, the plasma glucose levels entry with male rats (0.09-9 nmol/kg intravenously 20 min before glucose 2.8 mmol/kg bolus) is listed as “mirrored the results of insulin”. Moreover, the “glucose-induced insulin secretion (plasma insulin)” value with male rats (0.09-9 nmol/kg intravenously 20 min before glucose 2.8 mmol/kg bolus, listed as Ast2-B) was “attenuated glucose-induced insulin secretion in a dose dependent manner; also recorded: attenuates glucose induced insulin secretion”. Moreover, the “insulin secretion induced by 16.8 mM glucose” value in the data set with isolated rat islets [2] is “has CRFR2 antagonist activity”; in the data set on isolated rat islets [2] (listed as Ast2-B), “significantly attenuated; also recorded: attenuated by Ast2-B in a dose-dependent manner”; in the data set on isolated rat islets [2] (listed as astressin-2B), “attenuates 16.8 mM glucose-induced insulin secretion in a dose-dependent manner”. Further, in the data set with isolated rat islets [2] (2.8 mM glucose), the “insulin release induced by 2.8 mM glucose” value is given as “did not affect”. Also, the figures for the “insulin secretion induced by 8.4 mM glucose” value in the data set with isolated rat islets [2] and with isolated rat islets [2] (listed as Ast2-B) were “did not significantly modify” and “did not affect”, respectively. Further, the “insulin release induced by 10 mM glucose” value in the data set with isolated rat islets [2] (10 mM glucose) is recorded as “did not affect”. Further, the “crossing of the blood brain barrier” value in data set [3] is “unlikely to cross the blood brain barrier”. Also, the “glucose tolerance test profile” value in the data set on wild type mice is given as “has CRFR2 antagonist activity; also recorded: mirrors that of Ucn 2 null mice; also recorded: mimics the Ucn 2 mutant mice glucose tolerance test profile”.
